Values of other authors as cited in patent US10668058B2, “Device and method for delivery of a medicament” (Philip Morris Products S.A., priority 2007, dated 2020).

Conditions: 25° C.

CN1CCCC1c1cccnc1 (stereo not shown) [Nicotine only, Nicotine]
vapor pressure: 0.04 mm Hg
